In patent publication US20230210831A1, “CHRONIC KIDNEY DISEASE TREATMENT OR PREVENTION METHOD” (Japan Tobacco Inc., priority 2019, published 2023):
“And” between values parts separate entries of the source, which are not always exact repeats. Equal entries are not always repeated.

Key:
Type in all cases: cell-based
[1] = test system: Salmonella typhimurium TA98; test: Ames test (reverse mutation test), TA98
Procedure: (§1) The solvent used herein was dimethyl sulfoxide (DMSO, 100 µL/plate).
(§2) The mixtures were preincubated at 37° C. for 20 minutes while shaking. […] Two plates per treatment were used.

[2] = test system: Salmonella typhimurium TA1537; test: Ames test (reverse mutation test), TA1537
Procedure: as §1, §2

[3] = test system: Salmonella typhimurium TA100; test: Ames test (reverse mutation test), TA100
Procedure: as §1, §2

[4] = test system: Salmonella typhimurium TA1535; test: Ames test (reverse mutation test), TA1535
Procedure: as §1, §2

Escherichia coli WP2uvrA = test: Ames test (reverse mutation test), WP2uvrA; conditions: WP2uvrA
Procedure: as §1, §2

[5] = test system: Salmonella typhimurium (TA98, TA1537, TA100, and TA1535) and Escherichia coli (WP2uvrA); test: Ames test (reverse mutation test), overall conclusion over all tester strains; conditions: all bacterial tester strains, with and/or without S9 mix
Procedure: as §1, §2
Details are explained as follows.

CC(C)(C)Oc1cc(F)cc(-c2cc(N)nn2C(F)(F)F)c1 [Metabolite 1]
Number of revertant colonies ([1]; TA98, +S9 mix, 2.3 µg/plate): 35 | Number of revertant colonies ([1]; TA98, +S9 mix, 6.9 µg/plate): 31 | Number of revertant colonies ([1]; TA98, +S9 mix, 21 µg/plate): 35 | Number of revertant colonies ([1]; TA98, +S9 mix, 62 µg/plate): 28 | Number of revertant colonies ([1]; TA98, +S9 mix, 185 µg/plate): 16 | Number of revertant colonies ([1]; TA98, +S9 mix, 556 µg/plate): 15 | Number of revertant colonies ([1]; TA98, +S9 mix, 1667 µg/plate): 13 | Number of revertant colonies ([1]; TA98, +S9 mix, 5000 µg/plate): 13 | Number of revertant colonies ([1]; TA98, -S9 mix, 2.3 µg/plate): 14 | Number of revertant colonies ([1]; TA98, -S9 mix, 6.9 µg/plate): 16 | Number of revertant colonies ([1]; TA98, -S9 mix, 21 µg/plate): 14 | Number of revertant colonies ([1]; TA98, -S9 mix, 62 µg/plate): 21 | Number of revertant colonies ([1]; TA98, -S9 mix, 185 µg/plate): 9 | Number of revertant colonies ([1]; TA98, -S9 mix, 556 µg/plate): 0 | Number of revertant colonies ([1]; TA98, -S9 mix, 1667 µg/plate): 0 | Number of revertant colonies ([1]; TA98, -S9 mix, 5000 µg/plate): 0 | Number of revertant colonies ([2]; TA1537, +S9 mix, 2.3 µg/plate): 11 | Number of revertant colonies ([2]; TA1537, +S9 mix, 6.9 µg/plate): 10 | Number of revertant colonies ([2]; TA1537, +S9 mix, 21 µg/plate): 9 | Number of revertant colonies ([2]; TA1537, +S9 mix, 62 µg/plate): 6 | Number of revertant colonies ([2]; TA1537, +S9 mix, 185 µg/plate): 2 | Number of revertant colonies ([2]; TA1537, +S9 mix, 556 µg/plate): 0 | Number of revertant colonies ([2]; TA1537, +S9 mix, 1667 µg/plate): 0 | Number of revertant colonies ([2]; TA1537, +S9 mix, 5000 µg/plate): 0 | Number of revertant colonies ([2]; TA1537, -S9 mix, 2.3 µg/plate): 7 | Number of revertant colonies ([2]; TA1537, -S9 mix, 6.9 µg/plate): 10 | Number of revertant colonies ([2]; TA1537, -S9 mix, 21 µg/plate): 9 | Number of revertant colonies ([2]; TA1537, -S9 mix, 62 µg/plate): 9 | Number of revertant colonies ([2]; TA1537, -S9 mix, 185 µg/plate): 0 | Number of revertant colonies ([2]; TA1537, -S9 mix, 556 µg/plate): 0 | Number of revertant colonies ([2]; TA1537, -S9 mix, 1667 µg/plate): 0 | Number of revertant colonies ([2]; TA1537, -S9 mix, 5000 µg/plate): 0 | Number of revertant colonies ([3]; TA100, +S9 mix, 2.3 µg/plate): 120 | Number of revertant colonies ([3]; TA100, +S9 mix, 6.9 µg/plate): 119 | Number of revertant colonies ([3]; TA100, +S9 mix, 21 µg/plate): 117 | Number of revertant colonies ([3]; TA100, +S9 mix, 62 µg/plate): 104 | Number of revertant colonies ([3]; TA100, +S9 mix, 185 µg/plate): 78 | Number of revertant colonies ([3]; TA100, +S9 mix, 556 µg/plate): 59 | Number of revertant colonies ([3]; TA100, +S9 mix, 1667 µg/plate): 50 | Number of revertant colonies ([3]; TA100, +S9 mix, 5000 µg/plate): 52 | Number of revertant colonies ([3]; TA100, -S9 mix, 2.3 µg/plate): 99 | Number of revertant colonies ([3]; TA100, -S9 mix, 6.9 µg/plate): 113 | Number of revertant colonies ([3]; TA100, -S9 mix, 21 µg/plate): 124 | Number of revertant colonies ([3]; TA100, -S9 mix, 62 µg/plate): 88 | Number of revertant colonies ([3]; TA100, -S9 mix, 185 µg/plate): 38 | Number of revertant colonies ([3]; TA100, -S9 mix, 556 µg/plate): 0 | Number of revertant colonies ([3]; TA100, -S9 mix, 1667 µg/plate): 0 | Number of revertant colonies ([3]; TA100, -S9 mix, 5000 µg/plate): 0 | Number of revertant colonies ([4]; TA1535, +S9 mix, 1667 µg/plate): 4 | Number of revertant colonies ([4]; TA1535, -S9 mix, 62 µg/plate): 8 | Number of revertant colonies ([4]; TA1535, -S9 mix, 185 µg/plate): 0 | Number of revertant colonies ([4]; TA1535, -S9 mix, 556 µg/plate): 0 | Number of revertant colonies ([4]; TA1535, -S9 mix, 1667 µg/plate): 0 | Number of revertant colonies (Escherichia coli WP2uvrA; +S9 mix, 2.3 µg/plate): 31 | Number of revertant colonies (Escherichia coli WP2uvrA; +S9 mix, 6.9 µg/plate): 31 | Number of revertant colonies (Escherichia coli WP2uvrA; +S9 mix, 12 µg/plate): 28 | Number of revertant colonies (Escherichia coli WP2uvrA; +S9 mix, 21 µg/plate): 32 and 25 | Number of revertant colonies (Escherichia coli WP2uvrA; +S9 mix, 36 µg/plate): 34 | Number of revertant colonies (Escherichia coli WP2uvrA; +S9 mix, 62 µg/plate): 40 and 35 | Number of revertant colonies (Escherichia coli WP2uvrA; +S9 mix, 185 µg/plate): 16 and 9 | Number of revertant colonies (Escherichia coli WP2uvrA; +S9 mix, 556 µg/plate): 18 | Number of revertant colonies (Escherichia coli WP2uvrA; +S9 mix, 1667 µg/plate): 9 | Number of revertant colonies (Escherichia coli WP2uvrA; +S9 mix, 5000 µg/plate): 0 | Number of revertant colonies (Escherichia coli WP2uvrA; -S9 mix, 2.3 µg/plate): 32 | Number of revertant colonies (Escherichia coli WP2uvrA; -S9 mix, 6.9 µg/plate): 27 | Number of revertant colonies (Escherichia coli WP2uvrA; -S9 mix, 21 µg/plate): 31 | Number of revertant colonies (Escherichia coli WP2uvrA; -S9 mix, 62 µg/plate): 24 | Number of revertant colonies (Escherichia coli WP2uvrA; -S9 mix, 185 µg/plate): 15 | Number of revertant colonies (Escherichia coli WP2uvrA; -S9 mix, 556 µg/plate): 8 | Number of revertant colonies (Escherichia coli WP2uvrA; -S9 mix, 1667 µg/plate): 5 | Number of revertant colonies (Escherichia coli WP2uvrA; -S9 mix, 5000 µg/plate): 0 | potential to induce reverse mutations [5]: did not show potential to induce reverse mutations
